Experimental findings from patent EP0140395A1, “Water soluble derivatives of 1-(2-hydroxyethyl)-2-methyl-5-nitro-imidazole having therapeutical activity, process for its preparation and related pharmaceutical compositions” (Pietro Isnardi & C. Spa, priority 1983, dated 1985) are described below.

≈ marks a conversion by molar mass, not a printed value.

A short description of data set [1]: Toxicity (LD50) in the mouse. The settings on record: in vivo. The text has this:
(§1) The compound of the invention has been pharmacologically tested.
(§2) As regards the toxicity the following results were found: […]

Another data set can be described thus: Kinetic tests in the rat. It is filed as in vivo.
For a further data set, the system named is Trichomonas vaginalis. Put plainly: Minimum inhibiting concentration in five strains, in comparison with metronidazole. It is filed as cell-based. The settings on record: for MIC: average over five strains of Trichomonas vaginalis, metronidazole as 1 mg/ml solution in dimethyl sulfoxide, compound of the invention as 1 mg/ml water solution. Here is the method: The minimum inhibiting concentration (MIC) was investigated in five strains of Trichomonas vaginalis, in comparison with metronidazole.
Metronidazole was tested in form of a solution in dimethyl sulfoxide at a concentration of 1 mg/ml whereas the compound of the invention was tested in form of a water solution at a concentration of 1 mg/ml.

Data set [2] in a line: Toxicity (LD50) in the rat. The note with it: in vivo.
Source text: as §1, §2

A short description of data set [3]: Solubility of the compound. It is filed as physicochemical.

A word on the LD50: it is the dose at which mortality reaches 50%. A lower LD50 goes with greater toxicity. As usually defined, the MIC is the smallest concentration in the dilution series that meets the test's criterion for growth inhibition. A lower MIC goes with inhibition by little substance. With `Cc1ncc([N+](=O)[O-])n1CCOC(=O)NCCCCC(N)C(=O)O` (centres unmarked) [compound of the invention, N-(5-carboxy-5-aminopentan)-carbamic ester of 1-(2-hydroxyethyl)-2-methyl-5-nitro-imidazole], the median lethal dose (LD50) was above 4000 mg/kg in data set [1] (ip); above 4000 mg/kg in data set [1] (po, per os); 870 mg/kg in data set [2] (ip); 1620 mg/kg in data set [2] (po, per os). In “Kinetic tests in the rat” (in the organism and in acidic environment), the conversion into metronidazole result is reported as “not converted into metronidazole neither in the organism nor in acidic environnment”. In “Kinetic tests in the rat” (urine, after parenteral administration, read-out: urinary excretion), the dose excreted was below 30%. This compound also yielded a minimum inhibitory concentration (MIC) in the data set with Trichomonas vaginalis of 2.5 µg/mL (≈ 7.28 µM). Also, in the data set on Trichomonas vaginalis (preliminary tests, compared with metronidazole), the microbiological activity result is on record as “greater microbiological activity”. Moreover, the “solubility in anhydrous alcohols, acetone and chloroform” value in data set [3] (anhydrous alcohols, acetone and chloroform) is “insoluble”. Besides, in data set [3] (water), the solubility in water result was “perfectly soluble in water”.

In the data set on Trichomonas vaginalis, `Cc1ncc([N+](=O)[O-])n1CCO` [metronidazole, 1-(2-hydroxyethyl)-2-methyl-5-nitro-imidazole] came in with a minimum inhibitory concentration (MIC) of 5 µg/mL (≈ 29.2 µM).
